Source: article PMC3969020 (Biochemistry, 2014)

Assays:
Assay type in all cases: biochemical
[1] = target: T1, Horse liver alcohol dehydrogenase (ADH), E isoenzyme (Equus caballus, UniProt P00327, V208A); experiment: product inhibition against NAD+
[2] = target: T2, Horse liver alcohol dehydrogenase (ADH), E isoenzyme (Equus caballus, UniProt P00327); experiment: product inhibition against NAD+
[3] = target: T1, Horse liver alcohol dehydrogenase (ADH), E isoenzyme; experiment: X-ray crystal structure, […] Å
[4] = target: T2, Horse liver alcohol dehydrogenase (ADH), E isoenzyme; experiment: initial velocity and product inhibition kinetics

T1 sequence (P00327 2-375 V208A): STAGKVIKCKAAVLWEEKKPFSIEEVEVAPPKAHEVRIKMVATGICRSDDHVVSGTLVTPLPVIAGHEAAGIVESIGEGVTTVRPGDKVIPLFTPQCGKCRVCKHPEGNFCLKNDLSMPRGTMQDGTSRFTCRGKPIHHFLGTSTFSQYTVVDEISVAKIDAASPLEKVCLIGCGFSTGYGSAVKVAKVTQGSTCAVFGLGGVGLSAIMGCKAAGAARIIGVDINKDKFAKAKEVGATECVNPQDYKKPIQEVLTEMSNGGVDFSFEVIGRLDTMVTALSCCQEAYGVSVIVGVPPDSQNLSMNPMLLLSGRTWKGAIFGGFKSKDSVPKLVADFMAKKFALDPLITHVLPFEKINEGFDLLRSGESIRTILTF
T2 sequence (P00327 2-375): as the sequence (P00327 2-375 V208A) above, with A207V counted along it

Ki [1] [µM] | Ki [2] [µM] | Ki [3] [µM] | Ki [4] [µM] | Structure (SMILES)
0.39 ± 0.01 | 0.31 ± 0.02 | – | – | NC(=O)C1=CN([C@@H]2O[C@H](COP(=O)(O)OP(=O)(O)OC[C@H]3O[C@@H](n4cnc5c(N)ncnc54)[C@H](O)[C@@H]3O)[C@@H](O)[C@H]2O)C=CC1 [NADH]
– | – | 59 ± 5 | 20 ± 5 | NC(=O)c1ccc[n+]([C@@H]2O[C@H](COP(=O)([O-])OP(=O)(O)OC[C@H]3O[C@@H](n4cnc5c(N)ncnc54)[C@H](O)[C@@H]3O)[C@@H](O)[C@H]2O)c1 [NAD^+]
